Assays:
db/db mouse = experiment: In vivo wound healing test, full-thickness back skin wounds; settings: after treating for 18 days, dressing replaced every 48 hours
From the text: According to the aforementioned results, the sustained-release composition of the present disclosure does have the ability to enhance the cell migration, the cell proliferation and the angiogenesis, and the ability to facilitate the wound healing of the sustained-release composition of the present disclosure is further confirmed by the following in vivo wound healing test. The animal model established method and the animal experiment procedures of the in vivo wound healing test in this experiment are complied with the “Laboratory Animal Care and Use Guide” published by the Council of Agriculture, Taiwan. The diabetic animal model used in this experiment is an 8-week-old BKS.Cg-Lepr^db/Lepr^db/JNarl mouse (also known as db/db mouse).
In the in vivo wound healing test, four symmetrically distributed rounded full-thickness wounds are created on the back skin of each mouse by the tissue sampler after the mice are anesthetized, wherein the diameter of each wound is 0.5 centimeter and the volume of each wound is 50 μL. The four wounds are applied with different treatments respectively and the dressing is replaced every 48 hours. […] The area changes of each wound at different time points are further analyzed by the image analysis software.

ERK1/2 protein = experiment: Signaling molecule activation test, ERK1/2 phosphorylation by ELISA; type: cell-based, human; settings: HUVEC
Protocol: (§1) In the aforementioned description, the exogenous hydrogen sulfide can activate the signaling molecules related to the proliferation and the migration of the endothelial cells, such as ERK1/2 protein and p38 protein, so that the angiogenesis of the cells is enhanced. Thus, the ability to activate the signaling molecule of the sustained-release composition of the present disclosure is further estimated in this experiment. First, the human umbilical vein endothelial cells are seeded in a 6-well plate in a density of 10^5 cells per well. After incubating for 24 hours, the 1% FBS mediums containing the formula of the experimental group 1 or the experimental group 3 (all of them contain 25 mM D-glucose) respectively is added to each well of a 6-wells-plate. Finally, the cells are collected at specific time points and the phosphorylation level of p38 protein and ERK1/2 are quantified by the enzyme-linked immunosorbent assay (ELISA).

[1] = tested on: human umbilical vein endothelial cells; experiment: Tubular structure formation test on Matrigel; type: cell-based; settings: 25 mM D-glucose
From the text: The human umbilical vein endothelial cells will migrate, arrange and form a tubular network structure without additional growth factors and the participation of other kinds of cells, thus the wound-healing efficiency is affected by the maintenance of the tubular structure of the cells as time goes on. Therefore, the ability to enhance cell migration and facilitate the angiogenesis of the sustained-release composition of the present disclosure is confirmed by the tubular structure formation test of the human umbilical vein endothelial cells. The specific experimental method is described below. First, 200 μL of the growth factor-reduced matrix Matrigel is added to each well of a 24-well plate respectively and then placed into the 37° C. incubator. After the growth factor-reduced matrix Matrigel is heated and become colloid, 2.5×10^4 of the human umbilical vein endothelial cells are seeded in each well of the aforementioned 24-well plate and then 200 μL of the medium (containing 25 mM D-glucose) is added to the wells respectively. […] Next, the tubular structure of each experimental group is observed via an inverted microscope at the time points of 6 hours, 12 hours, 24 hours and 48 hours, and the branching point number of each experimental group is calculated.

p38 protein = experiment: Signaling molecule activation test, p38 phosphorylation by ELISA; type: cell-based, human; settings: HUVEC
Protocol: as §1

Q: What does the source list for S [experimental group 1, sodium hydrosulfide]?
A: appearance of the wound (db/db mouse): unobvious; phosphorylation level of the ERK1/2 protein (ERK1/2 protein; after 24 hours and 48 hours): decreased; phosphorylation level of the ERK1/2 protein (ERK1/2 protein; first hour): significantly increased; tubular structure ([1]; after incubating for 6 hours): can be observed; tubular structure disappeared rate ([1]; up to 48 hours): reduced; phosphorylation level of the p38 protein (p38 protein; after 24 hours and 48 hours): decreased; phosphorylation level of the p38 protein (p38 protein; first hour): significantly increased

Reference: patent publication US10322088B2, “Sustained-release composition, method for fabricating, and use thereof” (NATIONAL TSING HUA UNIVERSITY, priority 2017, dated 2019)
